Assay results: patent US20250197374A1, “WEE1 DEGRADING COMPOUNDS AND USES THEREOF” (BRISTOL-MYERS SQUIBB COMPANY, priority 2023, published 2025)

Legend:
Assay type in all cases: cell-based
[1] = test system: MKN45 cells; test: MKN45 cell proliferation assay (Cell-Titer-Glo, 120 hr); settings: for EC50: Homo sapiens, MKN-45, 120 h, read-out: MKN45 Cell Prolif. 120 hr EC50; for MKN45 Cell Prolif. 120 hr YMin (%): minimal percent of DMSO control observed
Description: (§1) MKN45 cells were obtained from Celgene internal cell banks and cultured in RPMI complete media (RPMI-1640, 1× Penicillin/Streptomycin, 1× glutamine, 1× Sodium Pyruvate, Non-essential Amino Acids, 10% Fetal Bovine serum, all component from Thermo-Fisher). MDA-MB-231 cells were obtained from the ATCC (HTB-26) and cultured in RPMI-1640 and 10% Fetal Bovine serum; MDA-MB-231 cells were expanded and stored as aliquots in liquid nitrogen in Celgene internal cell banks. Compounds were dispensed into 384-well plates using an HP DE300 compound printer in triplicate with 8 compounds on each plate. Compounds were dispensed into 384-well black clear bottom plates (Corning #3764BC) using an EDC acoustic dispenser at BMS. For each compound, a 10-point dose response was printed at half-log dilutions starting at either 1 uM or 10 uM in triplicate for MKN45 cells and in duplicate for MDA-MB-231 cells. The DMSO concentration was kept constant for a final assay concentration of 0.1% per well assuming 50 ul final media volume. Compound plates were sealed and frozen at −20 C until use.
(§2) For each assay batch, compound plates were thawed and allowed to reach room temperature, and cells were seeded at 400 MKN45 cells per well, or 800 MDA-MB-231 cells per well, in 50 ul media listed above for each cell line. After 120 hours of incubation at 37 C and 5% CO2, cells were lysed by addition of 25 μL of Cell-Titer-Glo Reagent (Promega Corporation, Madison, WI), as per manufacturer's instructions, protected from light, shaken for 45 minutes, and total luminescence read by a Perkin Elmer Envision plate reader. Total luminescence signal is linearly correlated with cell number remaining in the well.
(§3) Luminescence data was processed per plate by subtracting reagent-only “blank” well luminescence from all measured values and calculating a percent of DMSO control value for each treatment well. Then, to determine the half-maximal effective concentration (EC50) values for cell growth inhibition, a four parameter logistic model was fit to the data for each DMSO-normalized compound: Sigmoidal Dose-Response Model: (FIT=(A+((B−A)/1+((C/x)^D)))) where C is the inflection point ([…]), D is the Hill slope, and A and B are the low and high limits of the fit respectively. The lower limit of the fit (value A) is referred to as Ymin-calculated. The minimal percent of DMSO control that is observed in the concentrations tested for each compound is labeled as “Ymin-obs”, and was recorded and reported in the tables. Sigmoidal fit curves were processed and evaluated using Activity Base (IDBS, Alameda, CA) or using Dotmatics (Boston, MA). N/A=not available at the present time.

[2] = test system: MDA-MB-231 cells; test: MDA-MB-231 cell proliferation assay (Cell-Titer-Glo, 120 hr); settings: for MDA-MB 231 Cell Prolif. 120 hr YMin (%): minimal percent of DMSO control observed; for EC50: Homo sapiens, MDA-MB-231, 120 h, read-out: MDA-MB 231 Cell Prolif. 120 hr EC50
Description: as §1, §2, §3

[3] = target: T1, WEE1 (Homo sapiens, UniProt P30291+Q96SW2); test: WEE1-ePL degradation assay (293T-LentiX, InCELL Hunter luminescence, 4 hr); settings: for DC50: LentiX-HEK293T cells expressing WEE1-ePL, 4 hr incubation, read-out: 293T-LentiX WEE1-ePL Degradation 4 hr EC50; for 293T-LentiX WEE1-ePL Degradation 4 hr YMin (%): lower limit of fit, % of DMSO control signal remaining
T1 construct: C-terminal ePL-tagged (DiscoverX, Fremont, CA) full-length WEE1 expression construct; expressed in transfected cells; host or cells: LentiX-HEK293T (Invitrogen), lentivirally transduced; the cells also over-express GSPT1-GN
How it was run: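 LentiX-HEK293T cells expressing C-terminally ePL-tagged full-length WEE1 plus non-degradable GSPT1-GN (G575N, N-terminal 158 aa truncated). Treated 4 h at 37 °C with a 10-point, 3-fold series from 1 or 10 µM, then read by InCELL Hunter luminescence. EC50 from four-parameter logistic fit, Ymax set by DMSO control.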

T1 sequence (P30291 whole entry): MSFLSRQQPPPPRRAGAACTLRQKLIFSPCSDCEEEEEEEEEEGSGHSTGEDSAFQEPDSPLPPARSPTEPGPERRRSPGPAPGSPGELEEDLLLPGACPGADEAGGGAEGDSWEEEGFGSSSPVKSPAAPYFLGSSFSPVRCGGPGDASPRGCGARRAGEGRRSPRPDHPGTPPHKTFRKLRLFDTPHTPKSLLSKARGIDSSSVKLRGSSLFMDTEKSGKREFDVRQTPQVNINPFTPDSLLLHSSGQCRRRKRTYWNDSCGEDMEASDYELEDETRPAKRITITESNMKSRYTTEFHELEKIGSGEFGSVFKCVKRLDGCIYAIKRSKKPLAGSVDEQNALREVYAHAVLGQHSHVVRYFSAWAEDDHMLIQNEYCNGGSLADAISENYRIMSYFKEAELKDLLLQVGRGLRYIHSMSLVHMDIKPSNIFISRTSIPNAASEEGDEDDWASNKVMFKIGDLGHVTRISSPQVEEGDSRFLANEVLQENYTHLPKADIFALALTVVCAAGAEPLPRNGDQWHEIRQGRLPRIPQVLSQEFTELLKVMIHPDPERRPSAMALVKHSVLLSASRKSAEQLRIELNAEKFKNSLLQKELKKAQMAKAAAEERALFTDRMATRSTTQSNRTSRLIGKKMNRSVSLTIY
T1 sequence (Q96SW2 whole entry): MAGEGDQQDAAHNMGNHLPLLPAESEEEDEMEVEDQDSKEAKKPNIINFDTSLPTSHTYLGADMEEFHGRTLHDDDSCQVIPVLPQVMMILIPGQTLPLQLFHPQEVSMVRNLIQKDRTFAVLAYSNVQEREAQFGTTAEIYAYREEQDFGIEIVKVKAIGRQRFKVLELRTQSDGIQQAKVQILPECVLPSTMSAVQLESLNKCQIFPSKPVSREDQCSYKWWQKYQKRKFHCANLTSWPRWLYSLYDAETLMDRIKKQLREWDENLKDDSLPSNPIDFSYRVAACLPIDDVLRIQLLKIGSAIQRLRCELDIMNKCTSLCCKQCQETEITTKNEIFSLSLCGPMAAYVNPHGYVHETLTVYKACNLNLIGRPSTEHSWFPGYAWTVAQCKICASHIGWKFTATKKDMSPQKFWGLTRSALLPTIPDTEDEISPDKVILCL
T1 sequence (Q16531 whole entry partner): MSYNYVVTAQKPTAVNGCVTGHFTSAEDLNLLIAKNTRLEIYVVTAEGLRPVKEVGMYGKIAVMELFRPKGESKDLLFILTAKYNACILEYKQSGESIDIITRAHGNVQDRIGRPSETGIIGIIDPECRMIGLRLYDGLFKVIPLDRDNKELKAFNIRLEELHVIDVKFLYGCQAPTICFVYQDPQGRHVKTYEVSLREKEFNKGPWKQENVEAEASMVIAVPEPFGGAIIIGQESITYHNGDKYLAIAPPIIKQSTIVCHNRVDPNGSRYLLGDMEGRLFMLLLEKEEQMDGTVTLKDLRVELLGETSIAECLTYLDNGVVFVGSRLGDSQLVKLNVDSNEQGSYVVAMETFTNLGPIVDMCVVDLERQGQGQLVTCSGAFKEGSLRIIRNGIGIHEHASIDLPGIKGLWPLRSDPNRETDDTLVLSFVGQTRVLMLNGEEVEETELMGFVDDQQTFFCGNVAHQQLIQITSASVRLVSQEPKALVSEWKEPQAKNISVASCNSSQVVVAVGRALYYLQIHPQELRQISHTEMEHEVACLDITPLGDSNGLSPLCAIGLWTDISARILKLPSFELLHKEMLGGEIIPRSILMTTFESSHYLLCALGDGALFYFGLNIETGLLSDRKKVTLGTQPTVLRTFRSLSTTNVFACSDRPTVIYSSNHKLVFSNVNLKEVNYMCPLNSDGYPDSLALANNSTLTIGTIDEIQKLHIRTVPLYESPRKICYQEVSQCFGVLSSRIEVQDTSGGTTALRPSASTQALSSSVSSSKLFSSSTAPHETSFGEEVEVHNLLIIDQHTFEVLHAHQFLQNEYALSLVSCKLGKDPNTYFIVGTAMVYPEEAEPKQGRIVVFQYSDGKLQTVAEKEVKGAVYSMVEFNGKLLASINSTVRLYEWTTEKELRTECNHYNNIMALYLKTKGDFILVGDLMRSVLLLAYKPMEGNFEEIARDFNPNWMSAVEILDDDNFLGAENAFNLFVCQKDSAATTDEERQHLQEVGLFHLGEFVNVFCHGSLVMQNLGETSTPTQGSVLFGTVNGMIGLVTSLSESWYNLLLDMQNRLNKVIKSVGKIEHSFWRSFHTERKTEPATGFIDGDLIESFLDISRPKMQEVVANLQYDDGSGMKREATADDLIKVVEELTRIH

Row | Compound | EC50 [1] | DC50 [3] | 293T-LentiX WEE1-ePL Degradation 4 hr YMin (%) [3] | EC50 [2] | MKN45 Cell Prolif. 120 hr YMin (%) [1] | MDA-MB 231 Cell Prolif. 120 hr YMin (%) [2]
1 | COC[C@@H]1CN(Cc2cc(F)c3nc(C4CCCO4)ccc3c2)C[C@H]1Oc1ccc2c(c1)CN(C1CCC(=O)NC1=O)C2=O (relative stereo) [Example 65, rel-(3S)-3-(5-(((3S,4S)-1-((8-fluoro-2-(tetrahydrofuran-2-yl)quinolin-6-yl)methyl)-4-(methoxymethyl)pyrrolidin-3-yl)oxy)-1-oxoisoindolin-2-yl)piperidine-2,6-dione] | 2 nM | 1 nM | 27.3% |  | 8.1% | 94.2%
2 | COC[C@@H]1CN(Cc2cc(F)c3nc(C4CCCN4C)ccc3c2)C[C@H]1Oc1ccc2c(c1)CN([C@H]1CCC(=O)NC1=O)C2=O (relative stereo) [Example 66, rel-(3S)-3-(5-(((3S,4S)-1-((8-fluoro-2-(1-methylpyrrolidin-2-yl)quinolin-6-yl)methyl)-4-(methoxymethyl)pyrrolidin-3-yl)oxy)-1-oxoisoindolin-2-yl)piperidine-2,6-dione] | 5 nM | 3 nM | 32.7% | 107 nM | 13.9% | 57.1%
3 | COC[C@@H]1CN(Cc2cc(F)c3nc(C4CCCN4C)ncc3c2)C[C@H]1Oc1ccc2c(c1)CN([C@H]1CCC(=O)NC1=O)C2=O (relative stereo) [Example 77, rel-(3S)-3-(5-{[(3S,4S)-1-{[8-fluoro-2-(1-methylpyrrolidin-2-yl)quinazolin-6-yl]methyl}-4-(methoxymethyl)pyrrolidin-3-yl]oxy}-1-oxo-2,3-dihydro-1H-isoindol-2-yl)piperidine-2,6-dione] | 43 nM | 23 nM | 25.5% | 332 nM | 13.1% | 80.1%
4 | COC[C@@H]1CN(Cc2cc(F)c3nc(C4CCCOC4)ncc3c2)C[C@H]1Oc1ccc2c(c1)CN([C@H]1CCC(=O)NC1=O)C2=O (relative stereo) [Example 78, rel-(3S)-3-(5-{[(3S,4S)-1-{[8-fluoro-2-(oxan-3-yl)quinazolin-6-yl]methyl}-4-(methoxymethyl)pyrrolidin-3-yl]oxy}-1-oxo-2,3-dihydro-1H-isoindol-2-yl)piperidine-2,6-dione] | 4 nM | 3 nM | 27.1% | 27 nM | 7.7% | 22.5%
5 | COC[C@@H]1CN(Cc2cc(F)c3nc(C4CCCCO4)ncc3c2)C[C@H]1Oc1ccc2c(c1)CN([C@H]1CCC(=O)NC1=O)C2=O (relative stereo) [Example 96, rel-(3S)-3-(5-{[(3S,4S)-1-{[8-fluoro-2-(oxan-2-yl)quinazolin-6-yl]methyl}-4-(methoxymethyl)pyrrolidin-3-yl]oxy}-1-oxo-2,3-dihydro-1H-isoindol-2-yl)piperidine-2,6-dione] | 9 nM | 7 nM | 29.4% | 123 nM | 11.4% | 28.4%
6 | O=C(O)CC(CCO)c1ccc2cc(CN3CC[C@H](Oc4ccc5c(c4)CN([C@H]4CCC(=O)NC4=O)C5=O)C3)cc(F)c2n1 (relative stereo) [Example 99, rel-3-(6-{[(3S)-3-({2-[(3S)-2,6-dioxopiperidin-3-yl]-1-oxo-2,3-dihydro-1H-isoindol-5-yl}oxy)pyrrolidin-1-yl]methyl}-8-fluoroquinolin-2-yl)-5-hydroxypentanoic acid] | 282 nM | 75 nM | 39.0% | 73 nM | 82.9% | 78.7%

The next molecules have a lower EC50 [1] than those just listed; values first:

Row | EC50 [1] | DC50 [3] | 293T-LentiX WEE1-ePL Degradation 4 hr YMin (%) [3] | EC50 [2] | Compound | MKN45 Cell Prolif. 120 hr YMin (%) [1] | MDA-MB 231 Cell Prolif. 120 hr YMin (%) [2]
7 | 1 nM | 1 nM | 29.6% | 28 nM | COC[C@@H]1CN(Cc2cc(F)c3nc(C4CCN(C(C)=O)C4)ccc3c2)C[C@H]1Oc1ccc2c(c1)CN([C@H]1CCC(=O)NC1=O)C2=O (relative stereo) [Example 67, rel-(3S)-3-(5-(((3S,4S)-1-((2-(1-acetylpyrrolidin-3-yl)-8-fluoroquinolin-6-yl)methyl)-4-(methoxymethyl)pyrrolidin-3-yl)oxy)-1-oxoisoindolin-2-yl)piperidine-2,6-dione] | 12.3% | 37.7%
8 | 1 nM | 2 nM | 26.4% | 14 nM | COC[C@@H]1CN(Cc2cc(F)c3nc(C4CCN(CC(F)(F)F)C4)ccc3c2)C[C@H]1Oc1ccc2c(c1)CN([C@H]1CCC(=O)NC1=O)C2=O (relative stereo) [Example 68, rel-(3S)-3-(5-(((3S,4S)-1-((8-fluoro-2-(1-(2,2,2-trifluoroethyl)pyrrolidin-3-yl)quinolin-6-yl)methyl)-4-(methoxymethyl)pyrrolidin-3-yl)oxy)-1-oxoisoindolin-2-yl)piperidine-2,6-dione] | 8.9% | 17.4%
9 | 1 nM |  | 27.7% | 9 nM | COC[C@@H]1CN(Cc2cc(F)c3nc(C4CCCCO4)ccc3c2)C[C@H]1Oc1ccc2c(c1)CN([C@H]1CCC(=O)NC1=O)C2=O (relative stereo) [Example 69, rel-(3S)-3-(5-{[(3S,4S)-1-{[8-fluoro-2-(oxan-2-yl)quinolin-6-yl]methyl}-4-(methoxymethyl)pyrrolidin-3-yl]oxy}-1-oxo-2,3-dihydro-1H-isoindol-2-yl)piperidine-2,6-dione] | 8.6% | 20.5%
10 | 1 nM | 1 nM | 28.9% | 18 nM | COC[C@@H]1CN(Cc2cc(F)c3nc(C4CCCOC4)ccc3c2)C[C@H]1Oc1ccc2c(c1)CN([C@H]1CCC(=O)NC1=O)C2=O (relative stereo) [Example 70, rel-(3S)-3-(5-{[(3S,4S)-1-{[8-fluoro-2-(oxan-3-yl)quinolin-6-yl]methyl}-4-(methoxymethyl)pyrrolidin-3-yl]oxy}-1-oxo-2,3-dihydro-1H-isoindol-2-yl)piperidine-2,6-dione] | 11.9% | 26.1%
11 | 1 nM | 1 nM | 27.1% | 26 nM | COC[C@@H]1CN(Cc2cc(F)c3nc(C4CCC(C(C)(C)O)CC4)ncc3c2)C[C@H]1Oc1ccc2c(c1)CN([C@H]1CCC(=O)NC1=O)C2=O (relative stereo) [Example 111, rel-(S)-3-(5-(((3S,4S)-1-((8-fluoro-2-(4-(2-hydroxypropan-2-yl)cyclohexyl)quinazolin-6-yl)methyl)-4-(methoxymethyl)pyrrolidin-3-yl)oxy)-1-oxoisoindolin-2-yl)piperidine-2,6-dione] | 7.8% | 16.4%
